Assay results from patent US20160151337A1, “ANNELATED PYRROLES AND THEIR USE AS CRAC INHIBITORS” (Grünenthal GmbH, priority 2013, published 2016).

How the values were obtained:
CRAC channel = biological target: T1, CRAC channel (Homo sapiens, UniProt Q96D31); experiment: HEK Calcium Influx Assay (FLIPR), inhibition of store-operated Ca2+ entry after thapsigargin store depletion; type: cell-based; settings: 10 μM compound, HEK293 cells, read-out: % inhib. [@ 10 μM] FLIPR
T1 construct: endogenous in cells; host or cells: HEK293 (ECACC), untransfected
T1 sequence (Q96D31 whole entry): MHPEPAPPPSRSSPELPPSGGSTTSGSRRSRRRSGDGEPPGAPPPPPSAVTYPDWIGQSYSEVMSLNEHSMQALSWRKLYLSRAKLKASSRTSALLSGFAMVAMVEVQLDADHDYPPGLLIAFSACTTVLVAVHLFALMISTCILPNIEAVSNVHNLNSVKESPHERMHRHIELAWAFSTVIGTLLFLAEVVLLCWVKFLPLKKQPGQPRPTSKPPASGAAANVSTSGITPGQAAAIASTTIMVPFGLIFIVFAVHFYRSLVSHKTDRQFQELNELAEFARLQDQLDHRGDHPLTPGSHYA
Experimental: The effect of compounds of the invention on intracellular [Ca^2+] was tested in the HEK293 cell line (ECACC).
HEK293 cells were cultured in DMEM/F12/Glutamax (Gibco) containing 10% FCS (Gibco), and maintained at 37° C., 5% CO2. Cell were split twice a week [3*10^6 (Mon-Thu) and 1*10^6 (Thu-Mon) cells/50 ml medium in 1-175 ZK culture flasks, respectively]. Twenty four hours pre-experiment, cells were seeded on 96 well plates (Poly-D-Lysine 96 well Black/Clear Plate, BD Biocoat REF 356640) at a density of 40,000 cells/well in DMEM/F12 (Gibco) containing 10% FCS (Gibco), and maintained at 37° C., 5% CO2.
Prior to store-depletion, cell culture medium was removed and cells were loaded with the Calcium-sensitive fluorescent dye comprised within the Calcium-4-assay kit (Molecular Devices) in nominally Ca^2+-free HBS buffer (140 mM NaCl, 4 mM KCl, 0.2 mM MgCl2, 11 mM D-glucose, and 10 mM HEPES, pH 7.4) according to manufacturer's instruction for 60 min at 37° C., 5% CO2.
Passive depletion of intracellular Ca^2+-stores was then triggered by employing the SERCA inhibitor thapsigargin (2 μM final) for 10 min in the dark (RT). To prevent immediate Ca^2+-entry via the activated store-operated channels (SOCs), cells were maintained in Ca^2+-free HBS buffer comprising 100 μM EGTA during store-depletion.
Intracellular changes in [Ca^2+] were subsequently monitored with the FLIPR device (Molecular Devices). In brief, baseline imaging post-store depletion was allowed for 1 min before adjusting the extracellular buffer to 3 mM CaCl2. Increases in intracellular [Ca^2+] due to pre-activated SOC channels were monitored for 15 min until intracellular Ca^2+ levels had declined into a steady-state. Finally, compounds were administered, and Ca^2+ signals were recorded for additional 10 min.
Inhibition of endogenous SOC in HEK293 cells was quantified employing the average Ca^2+ signal measured from 9.5-10 min post-administration. Zero percent inhibition (MAX) was defined as the Ca^2+ signal recorded from wells to which DMSO-only had been added instead of compound. Hundred percent inhibition (MIN) was defined as the signal obtained from wells in which cells haven't been treated with TG prior to Ca^2+ addition and to which DMSO-only had been added instead of compound. For routine IC50 determinations of compounds, 8 concentrations of a serial dilution (1:3.16) were tested, starting off from 10 μM. Reliable IC50's could consequently be determined only, if they were at least sub 2.5-3 μM.

[1] = test system: Interleukin-2 (IL-2) production/release in Jurkat T cells; experiment: Jurkat IL-2 Production Assay (PHA-stimulated, IL-2 AlphaLisa); type: cell-based; settings: Homo sapiens, PHA 15 μg/ml, 22 h, inhibition of IL-2 production
Experimental: The effect of compounds of the invention on Interleukin-2 (IL-2) production/release was tested in the Jurkat T cell line (ECACC) clone E6-1.
Jurkat T cells were cultured in DMEM/F12/Glutamax (Gibco) containing 10% FCS (Gibco), and maintained at 37° C., 5% CO2. Cells were split twice a week [5*10^6 (Mon-Thu) and 1*10^7 (Thu-Mon) cells/50 ml medium in 1-175 ZK culture flasks, respectively].
Prior to experiment, cells were seeded on 96 well plates (Cellstar 96 Well; Cat No. 655180, Greiner bio-one) at a density of 5*10^5 cells/well in DMEM/F12/Glutamax (Gibco) containing 10% FCS (Gibco), and incubated for 60 min at 37° C., 5% CO2. Subsequently, compounds were added and cells were allowed to incubate for 30 min at 37° C., 5% CO2. Cells were then stimulated with 15 μg/ml Phyto-hemagglutinin (PHA; Sigma) for 22 hours at 37° C., 5% CO2.
Before sampling of the supernatants, cells were spun down (200*g/5 min/RT). The amount of IL-2 released into the supernatant was quantified with the human IL-2 AlphaLisa kit (Perkin Elmer) according to manufacturer's instructions. Luminescence proximity measurements were carried out in the Synergy H4 reader (BioTek) employing the fluorescence setting of the reader (ex: 680/30 nm; em: 620/40 nm).
Inhibition of IL-2 production/release in/from Jurkat T cells was quantified as follows: Zero percent inhibition (MAX) was defined as the [IL-2] determined in supernatants derived from cells to which PHA & DMSO-only had been added instead of compound. Hundred percent inhibition (MIN) was defined as the [IL-2] determined in supernatants derived from cells that had been pre-treated with 1 μM CyclosporineA (Sigma) before the addition of 15 μg/ml PHA.
For routine IC50 determinations of compounds, 8 concentrations of a serial dilution (1:3.16) were tested, starting off from 10 μM.

Row | SMILES | inhibition at 10 µM (CRAC channel) [%] | IC50 [1] [µM]
1 | CCn1nc(C2CC2)cc1N1CCc2[nH]c(-c3c(F)cccc3F)cc2C1 [Example 126, 5-(5-Cyclopropyl-2-ethyl-2H-pyrazol-3-yl)-2-(2,6-difluoro-phenyl)-4,5,6,7-tetrahydro-1H-pyrrolo[3,2-c]pyridine] | > 70 | 0.5 to 1
2 | Cc1sc(-c2cncnc2)nc1N1CCc2[nH]c(-c3c(F)cccc3F)cc2C1 [Example 30, 4-[2-(2,6-Difluoro-phenyl)-4,5,6,7-tetrahydro-1H-pyrrolo[3,2-c]pyridin-5-yl]-5-methyl-2-pyrimidin-5-yl-thiazole] | > 70 | 0.5 to 1
3 | Cc1ccc(Cl)cc1N1CCc2[nH]c(-c3c(F)cccc3Cl)cc2C1 [Example 64, 2-(2-Chloro-6-fluoro-phenyl)-5-(5-chloro-2-methyl-phenyl)-4,5,6,7-tetrahydro-1H-pyrrolo[3,2-c]pyridine] | < 50 | 1 to 5
4 | Cc1cc(S(C)(=O)=O)ncc1N1CCc2[nH]c(-c3c(F)cccc3F)cc2C1 [Example 16, 2-(2,6-Difluoro-phenyl)-5-(4-methyl-6-methylsulfonyl-pyridin-3-yl)-4,5,6,7-tetrahydro-1H-pyrrolo[3,2-c]pyridine] | > 70 | < 0.5
5 | Fc1cccc(F)c1-c1cc2c([nH]1)CCN(c1cnc(C(F)(F)F)cc1C1CC1)C2 [Example 113, 5-[4-Cyclopropyl-6-(trifluoromethyl)-pyridin-3-yl]-2-(2,6-difluoro-phenyl)-4,5,6,7-tetrahydro-1H-pyrrolo[3,2-c]pyridine] | < 50 | < 0.5
6 | Cc1sc(-c2cnccn2)nc1N1CCc2[nH]c(-c3c(F)cccc3F)cc2C1 [Example 26, 4-[2-(2,6-Difluoro-phenyl)-4,5,6,7-tetrahydro-1H-pyrrolo[3,2-c]pyridin-5-yl]-5-methyl-2-pyrazin-2-yl-thiazole] | > 70 | < 0.5
7 | Cc1cc(C(F)(F)F)ncc1N1CCc2[nH]c(C3CCCCC3)cc2C1 [Example 97, 2-Cyclohexyl-5-[4-methyl-6-(trifluoromethyl)-pyridin-3-yl]-4,5,6,7-tetrahydro-1H-pyrrolo[3,2-c]pyridine] | 50 to 70 | 1 to 5
8 | Cc1cc(S(C)(=O)=O)ncc1N1CCc2[nH]c(-c3cncc(F)c3C)cc2C1 [Example 96, 2-(5-Fluoro-4-methyl-pyridin-3-yl)-5-(4-methyl-6-methylsulfonyl-pyridin-3-yl)-4,5,6,7-tetrahydro-1H-pyrrolo[3,2-c]pyridine] | > 70 | 0.5 to 1
9 | Cc1cc(S(C)(=O)=O)ccc1N1CCc2[nH]c(-c3c(F)cccc3F)cc2C1 [Example 88, 2-(2,6-Difluoro-phenyl)-5-(2-methyl-4-methylsulfonyl-phenyl)-4,5,6,7-tetrahydro-1H-pyrrolo[3,2-c]pyridine] | 50 to 70 | < 0.5
10 | Cc1cc(S(=O)(=O)N2CCCCC2)ccc1N1CCc2[nH]c(-c3c(F)cccc3F)cc2C1 [Example 119, 2-(2,6-Difluoro-phenyl)-5-[2-methyl-4-(piperidin-1-ylsulfonyl)-phenyl]-4,5,6,7-tetrahydro-1H-pyrrolo[3,2-c]pyridine] | < 50 | 1 to 5
11 | Cc1cc(S(C)(=O)=O)ncc1N1CCc2[nH]c(C3CCCC3)cc2C1 [Example 118, 2-Cyclopentyl-5-(4-methyl-6-methylsulfonyl-pyridin-3-yl)-4,5,6,7-tetrahydro-1H-pyrrolo[3,2-c]pyridine] | > 70 | 1 to 5
12 | Cc1sc(-c2cccnc2)nc1N1CCc2[nH]c(-c3c(F)cccc3F)cc2C1 [Example 2, 4-[2-(2,6-Difluoro-phenyl)-4,5,6,7-tetrahydro-1H-pyrrolo[3,2-c]pyridin-5-yl]-5-methyl-2-pyridin-3-yl-thiazole] | > 70 | < 0.5
13 | Cc1nc(-c2cccnc2)sc1N1CCc2[nH]c(-c3c(F)cccc3F)cc2C1 [Example 18, 5-[2-(2,6-Difluoro-phenyl)-4,5,6,7-tetrahydro-1H-pyrrolo[3,2-c]pyridin-5-yl]-4-methyl-2-pyridin-3-yl-thiazole] | > 70 | < 0.5
14 | Cc1cc(C(F)(F)F)ncc1N1CCc2[nH]c(-c3c(F)cccc3F)cc2C1 [Example 73, 2-(2,6-Difluoro-phenyl)-5-[4-methyl-6-(trifluoromethyl)-pyridin-3-yl]-4,5,6,7-tetrahydro-1H-pyrrolo[3,2-c]pyridine] | > 70 | < 0.5
15 | Cc1sc(-c2ccccn2)nc1N1CCc2[nH]c(-c3c(F)cccc3F)cc2C1 [Example 6, 4-[2-(2,6-Difluoro-phenyl)-4,5,6,7-tetrahydro-1H-pyrrolo[3,2-c]pyridin-5-yl]-5-methyl-2-pyridin-2-yl-thiazole] | 50 to 70 | < 0.5
16 | Cc1cc(S(C)(=O)=O)c(F)cc1N1CCc2[nH]c(-c3c(F)cccc3F)cc2C1 [Example 101, 2-(2,6-Difluoro-phenyl)-5-(5-fluoro-2-methyl-4-methylsulfonyl-phenyl)-4,5,6,7-tetrahydro-1H-pyrrolo[3,2-c]pyridine] | > 70 | < 0.5
17 | CCOc1cc(C(F)(F)F)c(N2CCc3[nH]c(-c4c(F)cccc4F)cc3C2)cn1 [Example 100, 2-(2,6-Difluoro-phenyl)-5-[6-ethoxy-4-(trifluoromethyl)-pyridin-3-yl]-4,5,6,7-tetrahydro-1H-pyrrolo[3,2-c]pyridine] | < 50 | 1 to 5
18 | Cn1nc(C2CC2)cc1N1CCc2[nH]c(-c3c(F)cccc3F)cc2C1 [Example 106, 5-(5-Cyclopropyl-2-methyl-2H-pyrazol-3-yl)-2-(2,6-difluoro-phenyl)-4,5,6,7-tetrahydro-1H-pyrrolo[3,2-c]pyridine] | > 70 | 0.5 to 1
19 | CNS(=O)(=O)c1ccc(N2CCc3[nH]c(C4CCC(F)(F)CC4)cc3C2)c(C)c1 [Example 128, 4-[2-(4,4-Difluoro-cyclohexyl)-4,5,6,7-tetrahydro-1H-pyrrolo[3,2-c]pyridin-5-yl]-N,3-dimethyl-benzenesulfonic acid amide] | < 50 | 1 to 5
20 | COC(=O)c1ccc(N2CCc3[nH]c(-c4c(F)cccc4F)cc3C2)c(C)c1 [Example 13, 4-[2-(2,6-Difluoro-phenyl)-4,5,6,7-tetrahydro-1H-pyrrolo[3,2-c]pyridin-5-yl]-3-methyl-benzoic acid methyl ester] | < 50 | 0.5 to 1
21 | Cc1nc(C#N)ccc1N1CCc2[nH]c(-c3c(F)cccc3F)cc2C1 [Example 77, 5-[2-(2,6-Difluoro-phenyl)-4,5,6,7-tetrahydro-1H-pyrrolo[3,2-c]pyridin-5-yl]-6-methyl-pyridine-2-carbonitrile] | > 70 | 1 to 5
